Experimental findings from patent publication EP4567167A1, “ELECTROSPUN FIBERS COMPRISING SURFACE-REACTED CALCIUM CARBONATE AND ACTIVE INGREDIENTS” (Omya International AG, priority 2023, dated 2025) are described below.

The data set is described as follows: Production of drug-loaded fibers without SRCC by electrospinning. The note with it: PCL in chloroform/acetone. On the procedure: The spinning dispersion was prepared by mixing the solid carriers into a 15%, w/w solution of PCL, that was dissolved in a mix of chloroform/acetone, (40/60,w/w). The polymer solution was prepared separately. Therefore, the polymer was added slowly to avoid formation of clumps and subsequently stirred for at least 24 h at room temperature.
The emitter was an assembly of 4 blunt needles (21G) that were surrounded by nitrogen gas saturated with acetone (Figure 3 b)) to avoid bearding at the tip of the needles due to fast evaporation of solvents from the polymer solution. The lateral movement was adapted to the width of the drum collector (0.3 m) at a speed of approx. 0.1 m/s. Working distance (distance between emitter and collector) was 0.2 m and liquid feed rate was kept at 3ml/h for each needle using a syringe pump. A total of 30 ml was spun. The potential was adjusted to approx. -20kV ± 2kV in order to maintain a stable spray. The dimensions of the collector (rotating drum) were 0.3 m in width and a diameter of 0.1 m. The drum was rotated at 500 rpm. The drum was covered with aluminum and finally coated with magnesium-stearate to avoid the product from adhering/sticking to the aluminum foil. The process was constantly supervised. Needles were cleaned and the electric potential was adjusted when necessary to maintain a stable spinning process.

SMILES strings stand for the structures.

For `Nc1nc2c(ncn2COCCO)c(=O)[nH]1` [Acyclovir], the “solubility in the spinning solution” value is “too low”.
